Results: patent publication US12054485B2, “Substituted imidazoquinolines” (BIONTECH SE, priority 2017, dated 2024)

Molecular target: T1, human TLR8 (Homo sapiens, UniProt Q9NR97)
T1 construct: host or cells: HEK-Blue-hTLR8
T1 sequence (Q9NR97 27-1041): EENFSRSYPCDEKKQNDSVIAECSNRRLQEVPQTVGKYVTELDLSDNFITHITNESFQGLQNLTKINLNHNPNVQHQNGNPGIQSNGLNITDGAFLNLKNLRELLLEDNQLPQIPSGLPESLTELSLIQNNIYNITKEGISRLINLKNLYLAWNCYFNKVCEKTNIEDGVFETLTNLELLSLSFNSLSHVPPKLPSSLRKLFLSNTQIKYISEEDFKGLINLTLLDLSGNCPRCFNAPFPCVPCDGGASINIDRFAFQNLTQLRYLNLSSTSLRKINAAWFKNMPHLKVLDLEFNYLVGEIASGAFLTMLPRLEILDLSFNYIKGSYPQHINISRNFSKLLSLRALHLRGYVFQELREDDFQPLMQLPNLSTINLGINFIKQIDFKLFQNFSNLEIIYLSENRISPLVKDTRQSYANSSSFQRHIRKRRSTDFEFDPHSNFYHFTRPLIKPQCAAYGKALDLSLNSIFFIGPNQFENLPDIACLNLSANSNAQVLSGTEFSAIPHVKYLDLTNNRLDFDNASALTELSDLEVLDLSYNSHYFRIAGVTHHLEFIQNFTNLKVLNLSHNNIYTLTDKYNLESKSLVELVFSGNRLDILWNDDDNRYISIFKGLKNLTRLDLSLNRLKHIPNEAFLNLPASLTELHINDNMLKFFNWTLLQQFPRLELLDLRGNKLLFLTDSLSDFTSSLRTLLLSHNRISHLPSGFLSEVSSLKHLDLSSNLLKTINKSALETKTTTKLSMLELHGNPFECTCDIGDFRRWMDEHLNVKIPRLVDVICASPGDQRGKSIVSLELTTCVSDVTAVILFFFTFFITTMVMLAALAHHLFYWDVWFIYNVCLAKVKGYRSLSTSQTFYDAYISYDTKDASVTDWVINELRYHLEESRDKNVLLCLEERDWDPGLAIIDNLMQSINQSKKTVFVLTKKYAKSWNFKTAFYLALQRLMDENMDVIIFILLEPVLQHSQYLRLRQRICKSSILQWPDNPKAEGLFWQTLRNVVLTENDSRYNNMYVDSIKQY
Assay: TLR8 reporter gene assay (HEK-Blue-hTLR8, NFkB/AP-1 inducible SEAP)
Format: cell-based
Protocol: 2) TLR Stimulation Assay:
Compounds are tested for stimulation of human TLR7 and TLR8, respectively, via reporter gene expression analyzed in a cell line stably transfected with human TLR7 and TLR8, respectively, and coexpressing an NFkB/AP-1 inducible SEAP reporter gene. Stimulation with a TLR ligand leads to NFkB/AP-1 activation and upregulation and secretion of SEAP, which can be measured in the supernatant with QuantiBlue™ detection system (InvivoGen).
Cell lines used were either HEK-Blue-hTLR7 (InvivoGen #hkb-htlr7) or HEK-Blue-hTLR8 (InvivoGen #hkb-htlr8). Cells were cultured following manufacturer's instructions. […]

## CCc1nc2c(N)nc3ccccc3c2n1CCCCN(C(C)=O)C1CCOCC1 [Example 1, N-(4-(4-Amino-2-ethyl-1H-imidazo[4,5-c]quinolin-1-yl)butyl)-N-(tetrahydro-2H-pyran-4-yl)acetamide]
  activity towards TLR8 in the TLR8 reporter gene assay: no activity
